Data set [1] deals with Cruzipain (Trypanosoma cruzi) (UniProt P25779). The data set can be described thus: Inhibition of Trypanosoma cruzi cruzain at 100 uM relative to control.
Data set [2] can be described thus: Cytotoxicity against mouse RAW264.7 cells measured after 48 hrs. The format is toxicity, cell-based.
Data set [3] in a line: Selectivity index, ratio of CC50 for mouse L929 cells to IC50 for Trypanosoma cruzi Tulahuen expressing beta-galactosidase gene infected in mouse L929 cells. The format is toxicity, cell-based. The conditions noted are these: read-out: Ratio CC50/IC50.
Data set [4] concerns Leishmania amazonensis. The data set can be described thus: Antiparasitic activity against Leishmania amazonensis amastigotes infected in mouse RAW264.7 cells measured after 48 hrs. The class given is functional, organism-based. The conditions noted are these: for IC50: RAW264.7, 48 h.
Data set [5] relates to Trypanosoma cruzi. The data set can be described thus: Antitrypanosomal activity against tissue-culture derived trypomastigote form of Trypanosoma cruzi Y measured after 120 hrs. The class given is functional.
Data set [6] has as its system Leishmania infantum. The data set can be described thus: Antiparasitic activity against Leishmania infantum promastigotes infected in mouse RAW264.7 cells measured after 48 hrs. The class given is functional, organism-based.
A short description of data set [7]: Cytotoxicity against mouse L929 cells assessed as inhibition of cell viability measured after 120 hrs. The class given is toxicity, cell-based.
The subject of data set [8] is Trypanosoma cruzi. The data set can be described thus: Antitrypanosomal activity against bloodstream trypomastigote form of Trypanosoma cruzi Y measured after 24 hrs. The format is functional, organism-based.
The nature of data set [9]: Selectivity index, ratio of CC50 for mouse RAW264.7 cells to IC50 for Leishmania infantum amastigotes infected in mouse RAW264.7 cells. The class given is toxicity, cell-based. The conditions noted are these: read-out: Ratio CC50/IC50.
Data set [10] concerns Trypanosoma cruzi. The data set can be described thus: Antitrypanosomal activity against Trypanosoma cruzi Tulahuen expressing beta-galactosidase gene infected in mouse L929 cells measured after 120 hrs. The class given is functional, organism-based. The conditions noted are these: L929, 120 h.
For data set [11], the system named is Leishmania amazonensis. The data set can be described thus: Antiparasitic activity against Leishmania amazonensis promastigotes infected in mouse RAW264.7 cells measured after 48 hrs. The format is functional, organism-based.
Data set [12] in a line: Selectivity index, ratio of CC50 for mouse RAW264.7 cells to IC50 for Leishmania amazonensis amastigotes infected in mouse RAW264.7 cells. The class given is toxicity, cell-based. The conditions noted are these: read-out: Ratio CC50/IC50.
The subject of data set [13] is Leishmania infantum. The data set can be described thus: Antiparasitic activity against Leishmania infantum amastigotes infected in mouse RAW264.7 cells measured after 48 hrs. The conditions noted are these: for IC50: RAW264.7, 48 h. The class given is functional, organism-based.
Data set [14] in a line: Cytotoxicity against non-infected mouse peritoneal macrophage cells measured after 24 hrs. The class given is toxicity, cell-based. The conditions noted are these: non-infected peritoneal macrophages, read-out: LC50.

Calls of active or inactive are those of the source. The rule behind the calls is not given here.

By inhibition is commonly meant the percentage by which the read-out fell short of the control. One may read the IC50 as the concentration that gives 50% inhibition. Lower therefore signals greater potency. A word on the LC50: it is the concentration lethal to half of the exposed cells or organisms. A low value points to a more lethal substance.

Sequence of Cruzipain (Trypanosoma cruzi) (P25779 123-467 limits assumed): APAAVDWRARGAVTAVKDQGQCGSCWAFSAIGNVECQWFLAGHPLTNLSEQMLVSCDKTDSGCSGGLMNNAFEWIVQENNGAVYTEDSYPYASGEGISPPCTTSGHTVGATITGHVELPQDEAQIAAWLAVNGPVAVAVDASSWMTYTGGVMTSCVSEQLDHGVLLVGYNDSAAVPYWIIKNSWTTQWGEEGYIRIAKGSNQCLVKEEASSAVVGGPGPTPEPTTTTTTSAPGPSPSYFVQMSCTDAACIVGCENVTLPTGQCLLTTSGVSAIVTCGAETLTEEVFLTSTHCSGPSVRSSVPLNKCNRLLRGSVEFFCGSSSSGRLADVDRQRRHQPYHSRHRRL

On to `O=C(N/N=C/c1cccs1)c1nc2ccccc2[nH]1`, for which the inhibition in [1] is 24%. This compound showed a CC50 at 48 h in data set [2] of 131 µM. Moreover, the figures for the selectivity ratio in data set [3], in data set [9] and in data set [12] were 1.9, 2.7 and 2.1, respectively. Besides, the IC50 is 61.4 µM with Leishmania amazonensis [4], > 500 µM with Trypanosoma cruzi [8], 91.7 µM with Trypanosoma cruzi [10] and 48.8 µM with Leishmania infantum [13]. The same compound registered an LC50 in the data set with Trypanosoma cruzi [5] of 416 µM. In addition, the outcome with Leishmania infantum [6] and with Leishmania amazonensis [11] was inactive. The CC50 at 120 h in data set [7] amounted to 170 µM.
As for `COc1cc(/C=N/NC(=O)c2nc3ccccc3[nH]2)cc(OC)c1`, the inhibition in [1] came to 50%. The compound further showed a CC50 at 48 h in [2] of 8.94 µM. The selectivity ratio in [3] was 5.6; in [12], 0.1. For the same compound, the IC50 in the data set on Leishmania amazonensis [4] was 71.8 µM; in the data set on Trypanosoma cruzi [8], > 500 µM; with Trypanosoma cruzi [10], 29 µM. Further, the outcome with Leishmania infantum [6], in the data set with Leishmania amazonensis [11] and with Leishmania infantum [13] was inactive. Besides, the CC50 at 120 h in data set [7] amounted to 164 µM.
As to `COc1ccc(/C=N/NC(=O)c2nc3ccccc3[nH]2)cc1`, in data set [1], the inhibition worked out at 22%. This compound displayed a CC50 at 48 h in data set [2] of 188 µM. In addition, the selectivity ratio turned out to be 2.1 in data set [3], 5.1 in [9] and 5.4 in [12]. Moreover, the IC50 in the data set on Leishmania amazonensis [4] came out at 35 µM; with Trypanosoma cruzi [8], 207 µM; with Trypanosoma cruzi [10] it was 80.5 µM; in the data set with Leishmania infantum [13], 36.7 µM. This compound also had an LC50 with Trypanosoma cruzi [5] of 472 µM. The result in the data set on Leishmania infantum [6] and in the data set on Leishmania amazonensis [11] was inactive. For the same compound, the CC50 at 24 h in [14] is > 500 µM. Moreover, the CC50 at 120 h in [7] was determined as 170 µM.
As to `COc1cc(/C=N/NC(=O)c2nc3ccccc3[nH]2)cc(OC)c1OC`, the inhibition in data set [1] worked out at 6%. In [2], this compound had a CC50 at 48 h of 42.3 µM. Moreover, the selectivity ratio in [3] turned out to be 5.7; in data set [12], 0.3. Further, the IC50 in the data set with Leishmania amazonensis [4] was 148 µM; with Trypanosoma cruzi [8], > 500 µM; in the data set with Trypanosoma cruzi [10], 35.6 µM; in the data set on Leishmania amazonensis [11] (RAW264.7, 48 h), > 282 µM; in the data set on Leishmania infantum [13], > 282 µM. This compound also yielded an LC50 with Trypanosoma cruzi [5] of 343 µM. For the same compound, the outcome with Leishmania infantum [6] was inactive. The CC50 at 120 h in data set [7] is 203 µM.
In data set [1], `O=C(N/N=C/c1ccc(Cl)cc1)c1nc2ccccc2[nH]1` gave an inhibition of 3%. Also, the CC50 at 48 h in data set [2] amounted to 12.4 µM. The selectivity ratio in data set [3] was 3.5; in data set [9], 0.4. Moreover, the result with Leishmania amazonensis [4] and in the data set on Leishmania amazonensis [11] was inactive. The IC50 in the data set on Leishmania infantum [6] (RAW264.7, 48 h) is > 335 µM; in the data set with Trypanosoma cruzi [8], > 500 µM; in the data set on Trypanosoma cruzi [10], 14.7 µM; with Leishmania infantum [13] it was 28.4 µM. For the same compound, the CC50 at 120 h in data set [7] is 51.9 µM.
Turning to `O=C(N/N=C/c1ccc([N+](=O)[O-])cc1)c1nc2ccccc2[nH]1`, the inhibition in data set [1] came to 2%. The compound also gave a CC50 at 48 h in data set [2] of 84.4 µM. In addition, the selectivity ratio in [3] is > 1.6. The outcome with Leishmania amazonensis [4], in the data set with Leishmania infantum [6], in the data set with Leishmania amazonensis [11] and in the data set on Leishmania infantum [13] was inactive. This compound also came in with a 50% lethal concentration (LC50) in the data set with Trypanosoma cruzi [5] of 328 µM. Besides, in data set [7], the CC50 at 120 h was > 323 µM. The IC50 in the data set with Trypanosoma cruzi [8] was > 500 µM; in the data set with Trypanosoma cruzi [10], 202 µM.
In the case of `O=C(N/N=C/c1ccc(F)cc1)c1nc2ccccc2[nH]1`, the inhibition in data set [1] stood at 17%. Moreover, the CC50 at 48 h in data set [2] is 57.8 µM. The selectivity ratio in data set [3] is 1.5; in data set [9], 3.1. The IC50 was > 354 µM in the data set with Leishmania amazonensis [4], > 500 µM in the data set on Trypanosoma cruzi [8], 230 µM in the data set with Trypanosoma cruzi [10] and 18.4 µM with Leishmania infantum [13]. In the data set with Trypanosoma cruzi [5], this compound had an LC50 of 633 µM. For the same compound, the outcome in the data set on Leishmania infantum [6] and with Leishmania amazonensis [11] was inactive. In addition, the CC50 at 120 h in [7] was found to be 354 µM.
`O=C(N/N=C/c1ccncc1)c1nc2ccccc2[nH]1` displayed an inhibition in data set [1] of 20%. Besides, in data set [2], the CC50 at 48 h was 126 µM. Further, the selectivity ratio worked out at 8.2 in data set [3] and 0.7 in [12]. Besides, the IC50 in the data set on Leishmania amazonensis [4] is 172 µM; with Trypanosoma cruzi [8], > 500 µM; with Trypanosoma cruzi [10], 32.4 µM. The same compound showed an LC50 in the data set with Trypanosoma cruzi [5] of 619 µM. For the same compound, the result in the data set on Leishmania infantum [6], in the data set with Leishmania amazonensis [11] and with Leishmania infantum [13] was inactive. Also, the CC50 at 120 h in data set [7] came to 265 µM.
The compound `COc1cc(/C=N/NC(=O)c2nc3ccccc3[nH]2)cc([N+](=O)[O-])c1O` gave an inhibition in data set [1] of 45%. In addition, the CC50 at 48 h in data set [2] came out at 84.4 µM. Moreover, in [3], the selectivity ratio is 1.2. Further, the outcome in the data set on Leishmania amazonensis [4], with Leishmania infantum [6], with Leishmania amazonensis [11] and in the data set on Leishmania infantum [13] was inactive. The LC50 in the data set with Trypanosoma cruzi [5] is 369 µM. Besides, the CC50 at 120 h in data set [7] came out at 124 µM. Besides, the IC50 is > 500 µM in the data set on Trypanosoma cruzi [8] and 104 µM with Trypanosoma cruzi [10].
In the case of `O=C(N/N=C/c1ccc2c(c1)OCO2)c1nc2ccccc2[nH]1`, the inhibition in data set [1] was found to be 47%. In data set [2], this compound returned a CC50 at 48 h of 30.1 µM. Also, the selectivity ratio in data set [3] worked out at 1.4; in data set [12] it was 0.7. The IC50 was 45.1 µM in the data set on Leishmania amazonensis [4], > 500 µM with Trypanosoma cruzi [8] and 105 µM with Trypanosoma cruzi [10]. For the same compound, the result in the data set on Leishmania infantum [6], with Leishmania amazonensis [11] and in the data set with Leishmania infantum [13] was inactive. Besides, in data set [7], the CC50 at 120 h is 148 µM.
As for `O=C(N/N=C/c1ccccc1)c1nc2ccccc2[nH]1`, the inhibition in data set [1] was 25%. In addition, the CC50 at 48 h in data set [2] worked out at 123 µM. In addition, the results for the selectivity ratio in [3], in data set [9] and in data set [12] were 2.1, 2.3 and 0.6, respectively. Besides, the IC50 in the data set with Leishmania amazonensis [4] was 191 µM; in the data set with Trypanosoma cruzi [8] it was > 500 µM; with Trypanosoma cruzi [10] it was 98.4 µM; in the data set on Leishmania infantum [13], 53.7 µM. Besides, the result in the data set on Leishmania infantum [6] and with Leishmania amazonensis [11] was inactive. Besides, the CC50 at 120 h in [7] worked out at 204 µM.
In turn, `COc1cc(/C=N/NC(=O)c2nc3ccccc3[nH]2)ccc1O` yielded an inhibition in data set [1] of 38%. Further, the CC50 at 48 h in data set [2] came to 89.9 µM. Also, in [3], the selectivity ratio worked out at 1.1. In addition, the outcome in the data set on Leishmania amazonensis [4], in the data set with Leishmania infantum [6], in the data set on Leishmania amazonensis [11] and in the data set with Leishmania infantum [13] was inactive. In the data set on Trypanosoma cruzi [5], this compound registered an LC50 of 394 µM. For the same compound, in [7], the CC50 at 120 h was 72.2 µM. The 50% inhibitory concentration (IC50) in the data set with Trypanosoma cruzi [8] was > 500 µM; in the data set with Trypanosoma cruzi [10], 65.7 µM.
For the compound `O=C(N/N=C/c1ccc(Br)cc1)c1nc2ccccc2[nH]1`, the inhibition in data set [1] was 3%. In data set [2], this compound yielded a CC50 at 48 h of 8.6 µM. Further, the selectivity ratio in data set [3] turned out to be 6.8. Further, the outcome in the data set with Leishmania amazonensis [4], in the data set on Leishmania infantum [6], in the data set with Leishmania amazonensis [11] and in the data set with Leishmania infantum [13] was inactive. The CC50 at 120 h in data set [7] was found to be 49.8 µM. For the same compound, the IC50 in the data set with Trypanosoma cruzi [8] is > 500 µM; in the data set with Trypanosoma cruzi [10], 7.3 µM.

Values taken from ChEMBL document CHEMBL5576098, “Synthesis and activity of benzimidazole N-Acylhydrazones against Trypanosoma cruzi, Leishmania amazonensis and Leishmania infantum” (Bioorg Med Chem Lett, 2024).
